Experimental data from ChEMBL document CHEMBL5104169, “Design and synthesis of mogrol derivatives modified on a ring with anti-inflammatory and anti-proliferative activities” (Bioorg Med Chem Lett, 2022).
Activity calls are given as the source filed them. The calls are words filed in the database; no cut-off is given here.

Key:
[1] = system: RAW264.7; assay: Cytotoxicity against mouse RAW264.7 cells at 10 uM measured after 24 hrs by CCK-8 assay relative to control; assay type: toxicity, cell-based; settings: raw264.7, 24 h
[2] = system: A549; assay: Antiproliferative activity against human A549 cells; assay type: functional, cell-based
[3] = system: NCI-H460; assay: Antiproliferative activity against human NCI-H460 cells; assay type: functional, cell-based
[4] = system: NCI-H1299; assay: Antiproliferative activity against human NCI-H1299 cells; assay type: functional, cell-based
[5] = system: NCI-H1975; assay: Antiproliferative activity against human NCI-H1975 cells; assay type: functional, cell-based
[6] = Cytotoxicity against mouse RAW264.7 cells assessed as cell viability at 10 uM measured after 24 hrs by CCK-8 assay relative to control; assay type: toxicity, cell-based; settings: read-out: Activity
[7] = system: RAW264.7; assay: Inhibition of LPS-induced NO production in mouse RAW264.7 cells at 10 uM relative to control; assay type: functional
[8] = system: RAW264.7; assay: Inhibition of LPS-induced NO production in mouse RAW264.7 cells at 5 uM relative to control; assay type: functional
[9] = system: RAW264.7; assay: Inhibition of LPS-induced NO production in mouse RAW264.7 cells; assay type: functional, cell-based
[10] = system: RAW264.7; assay: Antiinflammatory activity against mouse RAW264.7 cells assessed as decrease in LPS-induced TNF-alpha level at 10 uM measured by ELISA assay; assay type: functional, cell-based
[11] = system: RAW264.7; assay: Antiinflammatory activity against mouse RAW264.7 cells assessed as decrease in LPS-induced IL-6 level at 10 uM measured by ELISA assay; assay type: functional, cell-based
[12] = system: RAW264.7; assay: Antiinflammatory activity against LPS-induced mouse RAW264.7 cells assessed as decrease in phosphorylation levels of p65 at 2.5 to 10 uM and measured by Western blot analysis; assay type: functional, cell-based; settings: dose 2.5-10 µM
[13] = system: RAW264.7; assay: Antiinflammatory activity against LPS-induced mouse RAW264.7 cells assessed as decrease in phosphorylation levels of IkBalpha at 2.5 to 10 uM and measured by Western blot analysis; assay type: functional, cell-based; settings: dose 2.5-10 µM
[14] = system: RAW264.7; assay: Antiinflammatory activity against LPS-induced mouse RAW264.7 cells assessed as decrease in iNOS expression at 2.5 to 10 uM and measured by Western blot analysis; assay type: functional, cell-based; settings: dose 2.5-10 µM

Structure (SMILES) | Activity [1] | IC50 [2] | IC50 [3] | IC50 [4] | IC50 [5] | viability at 24 h, 10 µM [6] | inhibition at 10 µM [7] | inhibition at 5 µM [8] | IC50 [9] | Activity [10] | Activity [11] | Activity [12] | Activity [13] | Activity [14]
C[C@H](CC[C@@H](O)C(C)(C)O)[C@H]1CC[C@@]2(C)[C@@H]3CC=C4[C@@H](C/C(=C\c5ccc(Cl)cc5)C(=O)C4(C)C)[C@]3(C)[C@H](O)C[C@]12C | Toxic | 8.26 µM | 9.94 µM | > 30 µM | 13.6 µM |  |  |  |  |  |  |  |  | 
C[C@H](CC[C@@H](O)C(C)(C)O)[C@H]1CC[C@@]2(C)[C@@H]3CC=C4[C@@H](Cc5cc6cc(F)ccc6nc5C4(C)C)[C@]3(C)[C@H](O)C[C@]12C | Toxic | 7.55 µM | 16.3 µM | 11.7 µM | 14.7 µM |  |  |  |  |  |  |  |  | 
C[C@H](CC[C@@H](O)C(C)(C)O)[C@H]1CC[C@@]2(C)[C@@H]3CC=C4[C@@H](C/C(=C\c5ccccc5)C(=O)C4(C)C)[C@]3(C)C(=O)C[C@]12C | Toxic | 16.1 µM | 32.5 µM | > 30 µM | > 30 µM |  |  |  |  |  |  |  |  | 
CC(C)c1ccc2[nH]c3c(c2c1)C[C@@H]1C(=CC[C@@H]2[C@@]1(C)[C@H](O)C[C@]1(C)[C@@H]([C@H](C)CC[C@@H](O)C(C)(C)O)CC[C@@]21C)C3(C)C |  | 25.4 µM | 25 µM | > 30 µM | > 30 µM | > 95% |  |  |  |  |  |  |  | 
C[C@H](CC[C@@H](O)C(C)(C)O)[C@H]1CC[C@@]2(C)[C@@H]3CC=C4[C@@H](Cc5c([nH]c6ccccc56)C4(C)C)[C@]3(C)[C@H](O)C[C@]12C |  | 16.4 µM | 18.3 µM | 22.4 µM | 23.2 µM | > 95% |  |  |  |  |  |  |  | 
Cc1ccc2[nH]c3c(c2c1)C[C@@H]1C(=CC[C@@H]2[C@@]1(C)C(=O)C[C@]1(C)[C@@H]([C@H](C)CC[C@@H](O)C(C)(C)O)CC[C@@]21C)C3(C)C |  | 16.5 µM | > 30 µM | 18.7 µM | > 30 µM |  | 56.6% |  |  |  |  |  |  | 
CC(C)c1ccc2[nH]c3c(c2c1)C[C@@H]1C(=CC[C@@H]2[C@@]1(C)C(=O)C[C@]1(C)[C@@H]([C@H](C)CC[C@@H](O)C(C)(C)O)CC[C@@]21C)C3(C)C |  | 22.2 µM | > 30 µM | > 30 µM | > 30 µM |  | 57.4% |  |  |  |  |  |  | 
Cc1ccc(/C=C2\C[C@@H]3C(=CC[C@@H]4[C@@]3(C)[C@H](O)C[C@]3(C)[C@@H]([C@H](C)CC[C@@H](O)C(C)(C)O)CC[C@@]43C)C(C)(C)C2=O)cc1 | Toxic | 9.91 µM | 13.7 µM | > 30 µM | 15.1 µM |  |  |  |  |  |  |  |  | 
C[C@H](CC[C@@H](O)C(C)(C)O)[C@H]1CC[C@@]2(C)[C@@H]3CC=C4[C@@H](CC[C@H](O)C4(C)C)[C@]3(C)[C@H](O)C[C@]12C [MOGROL] |  | 28.6 µM | > 100 µM | > 100 µM | 87.1 µM |  | 17.4% |  |  |  |  |  |  | 
C[C@H](CC[C@@H](O)C(C)(C)O)[C@H]1CC[C@@]2(C)[C@@H]3CC=C4[C@@H](C/C(=C\c5cccnc5)C(=O)C4(C)C)[C@]3(C)C(=O)C[C@]12C | Toxic | 12.6 µM | 16.5 µM | 16.4 µM | 12.7 µM |  |  |  |  |  |  |  |  | 
C[C@H](CC[C@@H](O)C(C)(C)O)[C@H]1CC[C@@]2(C)[C@@H]3CC=C4[C@@H](Cc5cc6ccccc6nc5C4(C)C)[C@]3(C)[C@H](O)C[C@]12C | Toxic | 17.2 µM | 18.9 µM | 20 µM | 18.7 µM |  |  |  |  |  |  |  |  | 
C[C@H](CC[C@@H](O)C(C)(C)O)[C@H]1CC[C@@]2(C)[C@@H]3CC=C4[C@@H](Cc5c([nH]c6ccc(Cl)cc56)C4(C)C)[C@]3(C)[C@H](O)C[C@]12C |  | > 30 µM | 23.1 µM | 19.1 µM | 18.5 µM | > 95% |  |  |  |  |  |  |  | 
C=C1C(=O)O[C@@H]2C3O[C@]3(C)CC/C=C(\C)CC[C@@H]12 (stereo not given in full) |  |  |  |  |  |  |  | 91.9% |  |  |  |  |  | 
C[C@H](CC[C@@H](O)C(C)(C)O)[C@H]1CC[C@@]2(C)[C@@H]3CC=C4[C@@H](C/C(=C\c5cccnc5)C(=O)C4(C)C)[C@]3(C)[C@H](O)C[C@]12C | Toxic | 11.1 µM | 11.1 µM | 14.6 µM | 13.4 µM |  |  |  |  |  |  |  |  | 
C[C@H](CC[C@@H](O)C(C)(C)O)[C@H]1CC[C@@]2(C)[C@@H]3CC=C4[C@@H](Cc5cc6cc(Cl)ccc6nc5C4(C)C)[C@]3(C)[C@H](O)C[C@]12C | Toxic | 8.22 µM | 19 µM | 13.2 µM | 16.4 µM |  |  |  |  |  |  |  |  | 
C[C@H](CC[C@@H](O)C(C)(C)O)[C@H]1CC[C@@]2(C)[C@@H]3CC=C4[C@@H](C/C(=C\c5ccncc5)C(=O)C4(C)C)[C@]3(C)[C@H](O)C[C@]12C | Toxic | 11.6 µM | 15 µM | 13.3 µM | 12.7 µM |  |  |  |  |  |  |  |  | 
Cc1ccc(/C=C2\C[C@@H]3C(=CC[C@@H]4[C@@]3(C)C(=O)C[C@]3(C)[C@@H]([C@H](C)CC[C@@H](O)C(C)(C)O)CC[C@@]43C)C(C)(C)C2=O)cc1 | Toxic | 22.1 µM | 24.3 µM | > 30 µM | 19.1 µM |  |  |  |  |  |  |  |  | 
C[C@H](CC[C@@H](O)C(C)(C)O)[C@H]1CC[C@@]2(C)[C@@H]3CC=C4[C@@H](Cc5c([nH]c6ccccc56)C4(C)C)[C@]3(C)C(=O)C[C@]12C |  | 27.9 µM | > 30 µM | > 30 µM | > 30 µM |  | 78.2% |  |  |  |  |  |  | 
COc1ccc2[nH]c3c(c2c1)C[C@@H]1C(=CC[C@@H]2[C@@]1(C)C(=O)C[C@]1(C)[C@@H]([C@H](C)CC[C@@H](O)C(C)(C)O)CC[C@@]21C)C3(C)C |  | 21.9 µM | > 30 µM | > 30 µM | 19 µM |  | 87.6% |  | 5.05 µM | Active | Active | Active | Active | Active
C[C@H](CC[C@@H](O)C(C)(C)O)[C@H]1CC[C@@]2(C)[C@@H]3CC=C4[C@@H](C/C(=C\c5ccccc5)C(=O)C4(C)C)[C@]3(C)[C@H](O)C[C@]12C | Toxic | 10.7 µM | 16 µM | 12 µM | 13.6 µM |  |  |  |  |  |  |  |  | 
Cc1ccc2[nH]c3c(c2c1)C[C@@H]1C(=CC[C@@H]2[C@@]1(C)[C@H](O)C[C@]1(C)[C@@H]([C@H](C)CC[C@@H](O)C(C)(C)O)CC[C@@]21C)C3(C)C |  | 22.6 µM | 31.5 µM | > 30 µM | > 30 µM |  | 45.1% |  |  |  |  |  |  | 
O=c1[nH]cc(F)c(=O)[nH]1 [FLUOROURACIL] |  | 1.65 µM |  | 3.53 µM | 1.98 µM |  |  |  |  |  |  |  |  | 
C[C@H](CC[C@@H](O)C(C)(C)O)[C@H]1CC[C@@]2(C)[C@@H]3CC=C4[C@@H](Cc5cc6cc(Br)ccc6nc5C4(C)C)[C@]3(C)[C@H](O)C[C@]12C | Toxic | 8.99 µM | > 30 µM | 27 µM | 25.7 µM |  |  |  |  |  |  |  |  | 
C[C@H](CC[C@@H](O)C(C)(C)O)[C@H]1CC[C@@]2(C)[C@@H]3CC=C4[C@@H](Cc5cc6ccncc6nc5C4(C)C)[C@]3(C)[C@H](O)C[C@]12C | Toxic | > 30 µM | 23.4 µM | > 30 µM | > 30 µM |  |  |  |  |  |  |  |  | 
